Measurements from the CheMixHub viscosity set.

Experiment: xn = mol fraction of the nth substance listed

CC12CC3CC(C1)CC(C)(C3)C2 + CCCCCCCCCCC
viscosity [mPa·s], 100 kPa
Conditions | x1 = 0.1005 | x1 = 0.2002 | x1 = 0.2999 | x1 = 0.4004 | x1 = 0.4999 | x1 = 0.5996 | x1 = 0.7003 | x1 = 0.8 | x1 = 0.8999
293.15 K | 1.278 | 1.376 | 1.491 | 1.628 | 1.805 | 2.024 | 2.319 | 2.683 | 3.141
298.15 K | 1.173 | 1.273 | 1.385 | 1.492 | 1.639 | 1.831 | 2.087 | 2.418 | 2.813
303.15 K | 1.083 | 1.162 | 1.25 | 1.37 | 1.501 | 1.676 | 1.901 | 2.19 | 2.531
308.15 K | 1.003 | 1.071 | 1.153 | 1.259 | 1.376 | 1.53 | 1.735 | 1.98 | 2.299
313.15 K | 0.936 | 0.998 | 1.074 | 1.166 | 1.272 | 1.409 | 1.589 | 1.817 | 2.083
318.15 K | 0.872 | 0.939 | 1.006 | 1.084 | 1.172 | 1.297 | 1.461 | 1.665 | 1.911
323.15 K | 0.815 | 0.871 | 0.94 | 1.008 | 1.097 | 1.207 | 1.348 | 1.532 | 1.744

C=Cc1ccccc1 + CCCCCCCCCCCC
viscosity [mPa·s], 101.33 kPa
Conditions | x1 = 0.0973 | x1 = 0.2027 | x1 = 0.2991 | x1 = 0.4009 | x1 = 0.5183 | x1 = 0.5987 | x1 = 0.699 | x1 = 0.8005 | x1 = 0.8996
298.15 K | 1.243 | 1.143 | 1.062 | 0.99 | 0.909 | 0.866 | 0.822 | 0.774 | 0.739
303.15 K | 1.151 | 1.051 | 0.985 | 0.92 | 0.847 | 0.81 | 0.769 | 0.722 | 0.688
308.15 K | 1.059 | 0.98 | 0.915 | 0.854 | 0.791 | 0.76 | 0.724 | 0.691 | 0.656

CCCCCCCCO + CCCCCCCCCCCC
298.15 K, 101 kPa
Conditions | viscosity [mPa·s]
x2 = 0.0554 | 6.58
x2 = 0.0999 | 6
x2 = 0.1554 | 5.3
x2 = 0.1998 | 4.78
x2 = 0.2555 | 4.16
x2 = 0.2998 | 3.71
x2 = 0.3554 | 3.19
x2 = 0.3998 | 2.81
x2 = 0.4554 | 2.39
x2 = 0.4999 | 2.1
x2 = 0.5555 | 1.78
x2 = 0.5998 | 1.57
x2 = 0.6555 | 1.35
x2 = 0.6998 | 1.22
x2 = 0.7554 | 1.1
x2 = 0.7998 | 1.04
x2 = 0.8555 | 1
x2 = 0.8999 | 1
x2 = 0.9555 | 1.04

BrC(Br)Br + CCCCCCCCCO
viscosity [mPa·s], 101.3 kPa
Conditions | x1 = 0.105 | x1 = 0.299 | x1 = 0.404 | x1 = 0.504 | x1 = 0.604 | x1 = 0.704 | x1 = 0.802 | x1 = 0.903
298.15 K | 7.847 | 5.743 | 5.079 | 4.228 | 3.571 | 2.984 | 2.492 | 2.12
303.15 K | 6.517 | 4.87 | 4.38 | 3.693 | 3.151 | 2.669 | 2.266 | 1.963
308.15 K | 5.421 | 4.144 | 3.777 | 3.24 | 2.802 | 2.399 | 2.065 | 1.818
